Species on record: Rattus norvegicus
Assay: Open TG-GATES - Regimen: Daily Repeat
Format: toxicity, organism-based, Sprague-Dawley
Design: regimen Daily Repeat, gender Male, age 6 weeks
Conditions: in vivo, po, route gavage; for TP / gamma-GTP / ALP / ALT / AST / BUN / CRE / DBIL / GLC / IP / K / LDH / Na / PL / RALB / TBIL / TC / TG: tissue Plasma; for APTT / Bas / Eos / Fbg / Ht / Lym / MCH / MCHC / MCV / Mono / Neu / Plat / RBC / Ret / WBC: tissue Blood
[1] = 45 mg/kg, […], dose level Low, time 28 day
[2] = 150 mg/kg, 72 h, dose level Middle, time 3 day
[3] = 150 mg/kg, […], dose level Middle, time 7 day
[4] = 150 mg/kg, […], dose level Middle, time 14 day
[5] = 150 mg/kg, […], dose level Middle, time 28 day
[6] = 450 mg/kg, 72 h, dose level High, time 3 day
[7] = 450 mg/kg, […], dose level High, time 7 day
[8] = 450 mg/kg, […], dose level High, time 14 day
[9] = 450 mg/kg, […], dose level High, time 28 day

SMILES: CCCC(CCC)C(=O)O [VALPROIC ACID]
- TP [1]: 5.9 g/dL
- gamma-GTP [1]: 0.6 IU/L
- TERMINAL_BW [2]: 227 g
- APTT [2]: 19.8 s
- Bas [2]: 0%
- Eos [2]: 1%
- Fbg [2]: 219.8 mg/dL
- Ht [2]: 38.6%
- Lym [2]: 78%
- MCH [2]: 21.6 pg
- MCHC [2]: 34.3%
- MCV [2]: 62.9 fL
- Mono [2]: 3.8%
- Neu [2]: 17%
- Plat [2]: 140.1 x10_4/uL
- RBC [2]: 614.2 x10_4/ul
- Ret [2]: 6.8%
- WBC [2]: 106.9 x10_2/uL
- ALP [2]: 920.6 IU/L
- ALT [2]: 40 IU/L
- AST [2]: 73.6 IU/L
- BUN [2]: 16.2 mg/dL
- CRE [2]: 0.4 mg/dL
- DBIL [2]: 0.074 mg/dL
- GLC [2]: 211.4 mg/dL
- IP [2]: 7.9 mg/dL
- K [2]: 3.8 meq/L
- LDH [2]: 179.2 IU/L
- Na [2]: 141.4 meq/L
- PL [2]: 148.6 mg/dL
- RALB [2]: 3.3 g/dL
- TBIL [2]: 0.1 mg/dL
- TC [2]: 76.8 mg/dL
- TG [2]: 73 mg/dL
- TP [2]: 5.4 g/dL
- gamma-GTP [2]: 1.2 IU/L
- TERMINAL_BW [3]: 255.5 g
- TERMINAL_BW [4]: 311.1 g
- TERMINAL_BW [5]: 400.1 g
- APTT [3]: 19.5 s
- Bas [3]: 0%
- Eos [3]: 1.2%
- Fbg [3]: 219.6 mg/dL
- Ht [3]: 40.1%
- Lym [3]: 81%
- MCH [3]: 20.8 pg
- MCHC [3]: 33.9%
- MCV [3]: 61.3 fL
- Mono [3]: 3.4%
- Plat [3]: 129.5 x10_4/uL
- RBC [3]: 655 x10_4/ul
- Ret [3]: 5.7%
- WBC [3]: 106 x10_2/uL
- APTT [4]: 18.7 s
- Bas [4]: 0%
- Eos [4]: 1%
- Fbg [4]: 216.8 mg/dL
- Ht [4]: 42.3%
- Lym [4]: 83.2%
- MCH [4]: 20.6 pg
- MCHC [4]: 35%
- MCV [4]: 58.9 fL
- Mono [4]: 2.6%
- Neu [4]: 13.2%
- Plat [4]: 108.8 x10_4/uL
- RBC [4]: 720 x10_4/ul
- Ret [4]: 4%
- WBC [4]: 93.8 x10_2/uL
- APTT [5]: 19.7 s
- Bas [5]: 0%
- Eos [5]: 1.4%
- Fbg [5]: 214.2 mg/dL
- Ht [5]: 42.1%
- Lym [5]: 83.2%
- MCH [5]: 19 pg
- MCHC [5]: 35.2%
- MCV [5]: 53.9 fL
- Mono [5]: 2.6%
- Neu [5]: 12.4%
- Plat [5]: 116.1 x10_4/uL
- RBC [5]: 781.6 x10_4/ul
- Ret [5]: 2.3%
- WBC [5]: 89.2 x10_2/uL
- ALP [3]: 816 IU/L
- ALT [3]: 29.8 IU/L
- AST [3]: 59.2 IU/L
- BUN [3]: 15.4 mg/dL
- CRE [3]: 0.4 mg/dL
- DBIL [3]: 0.078 mg/dL
- GLC [3]: 220.6 mg/dL
- IP [3]: 7.2 mg/dL
- K [3]: 3.7 meq/L
- LDH [3]: 194.4 IU/L
- Na [3]: 140.6 meq/L
- RALB [3]: 3.4 g/dL
- TBIL [3]: 0.1 mg/dL
- TC [3]: 69.4 mg/dL
- TG [3]: 109.4 mg/dL
- TP [3]: 5.6 g/dL
- gamma-GTP [3]: 1.4 IU/L
- ALP [4]: 877.8 IU/L
- ALT [4]: 34.4 IU/L
- AST [4]: 64.2 IU/L
- BUN [4]: 16.6 mg/dL
- CRE [4]: 0.4 mg/dL
- DBIL [4]: 0.082 mg/dL
- GLC [4]: 218.2 mg/dL
- IP [4]: 7.9 mg/dL
- K [4]: 3.8 meq/L
- LDH [4]: 176.8 IU/L
- Na [4]: 140.4 meq/L
- PL [4]: 153.2 mg/dL
- RALB [4]: 3.4 g/dL
- TBIL [4]: 0.1 mg/dL
- TC [4]: 69.4 mg/dL
- TG [4]: 123 mg/dL
- TP [4]: 5.8 g/dL
- gamma-GTP [4]: 0.8 IU/L
- ALP [5]: 729.4 IU/L
- ALT [5]: 35 IU/L
- AST [5]: 65 IU/L
- BUN [5]: 17.6 mg/dL
- CRE [5]: 0.4 mg/dL
- DBIL [5]: 0.1 mg/dL
- GLC [5]: 208.2 mg/dL
- IP [5]: 6.7 mg/dL
- K [5]: 3.9 meq/L
- LDH [5]: 178.4 IU/L
- Na [5]: 141 meq/L
- PL [5]: 142.4 mg/dL
- RALB [5]: 3.5 g/dL
- TBIL [5]: 0.2 mg/dL
- TC [5]: 66.6 mg/dL
- TG [5]: 130.4 mg/dL
- TP [5]: 6.1 g/dL
- gamma-GTP [5]: 0.6 IU/L
- TERMINAL_BW [6]: 225.2 g
- APTT [6]: 19.4 s
- Bas [6]: 0%
- Eos [6]: 1%
- Fbg [6]: 213.4 mg/dL
- Ht [6]: 38.5%
- Lym [6]: 79.2%
- MCH [6]: 21.5 pg
- MCHC [6]: 34.4%
- MCV [6]: 62.4 fL
- Mono [6]: 2.8%
- Neu [6]: 16.4%
- Plat [6]: 131.5 x10_4/uL
- RBC [6]: 618.2 x10_4/ul
- Ret [6]: 5.1%
- WBC [6]: 85.9 x10_2/uL
- ALP [6]: 765 IU/L
- ALT [6]: 31.2 IU/L
- AST [6]: 64.8 IU/L
- BUN [6]: 14.6 mg/dL
- CRE [6]: 0.4 mg/dL
- DBIL [6]: 0.07 mg/dL
- GLC [6]: 201.8 mg/dL
- IP [6]: 7.9 mg/dL
- K [6]: 3.7 meq/L
- LDH [6]: 197.2 IU/L
- Na [6]: 141.8 meq/L
- PL [6]: 136 mg/dL
- RALB [6]: 3.4 g/dL
- TBIL [6]: 0.1 mg/dL
- TC [6]: 67.2 mg/dL
- TG [6]: 64.8 mg/dL
- TP [6]: 5.5 g/dL
- gamma-GTP [6]: 1.2 IU/L
- TERMINAL_BW [7]: 257.7 g
- TERMINAL_BW [8]: 310.7 g
- TERMINAL_BW [9]: 375.7 g
- APTT [7]: 19.5 s
- Bas [7]: 0%
- Eos [7]: 0.8%
- Fbg [7]: 209.8 mg/dL
- Ht [7]: 39.4%
- Lym [7]: 78.8%
- MCH [7]: 21.1 pg
- MCHC [7]: 34.2%
- MCV [7]: 61.7 fL
- Mono [7]: 4.2%
- Plat [7]: 114.2 x10_4/uL
- RBC [7]: 639.6 x10_4/ul
- Ret [7]: 6%
- WBC [7]: 111.1 x10_2/uL
- APTT [8]: 18.5 s
- Bas [8]: 0%
- Eos [8]: 0.8%
- Fbg [8]: 226.2 mg/dL
- Ht [8]: 41.6%
- Lym [8]: 84%
- MCH [8]: 20.2 pg
- MCHC [8]: 34.6%
- MCV [8]: 58.4 fL
- Mono [8]: 3.6%
- Neu [8]: 10.6%
- Plat [8]: 116.8 x10_4/uL
- RBC [8]: 712.6 x10_4/ul
- Ret [8]: 4.7%
- WBC [8]: 84.9 x10_2/uL
- APTT [9]: 20.4 s
- Bas [9]: 0%
- Eos [9]: 1%
- Fbg [9]: 201 mg/dL
- Ht [9]: 41.7%
- Lym [9]: 85%
- MCH [9]: 19.1 pg
- MCHC [9]: 34.7%
- MCV [9]: 55.1 fL
- Mono [9]: 3%
- Neu [9]: 10%
- Plat [9]: 101.4 x10_4/uL
- RBC [9]: 757 x10_4/ul
- Ret [9]: 2.4%
- WBC [9]: 78.5 x10_2/uL
- ALP [7]: 901.6 IU/L
- ALT [7]: 35.2 IU/L
- AST [7]: 65.6 IU/L
- BUN [7]: 16.2 mg/dL
- CRE [7]: 0.4 mg/dL
- DBIL [7]: 0.082 mg/dL
- GLC [7]: 217.6 mg/dL
- IP [7]: 7.5 mg/dL
- K [7]: 3.9 meq/L
- LDH [7]: 204.2 IU/L
- Na [7]: 139.4 meq/L
- PL [7]: 132.8 mg/dL
- RALB [7]: 3.3 g/dL
- TBIL [7]: 0.1 mg/dL
- TC [7]: 62 mg/dL
- TG [7]: 94.4 mg/dL
- TP [7]: 5.6 g/dL
- gamma-GTP [7]: 1.4 IU/L
- ALP [8]: 786 IU/L
- ALT [8]: 33 IU/L
- AST [8]: 64.6 IU/L
- BUN [8]: 17 mg/dL
- CRE [8]: 0.4 mg/dL
- DBIL [8]: 0.086 mg/dL
- GLC [8]: 207.6 mg/dL
- IP [8]: 6.9 mg/dL
- K [8]: 3.7 meq/L
- LDH [8]: 189.2 IU/L
- Na [8]: 140.2 meq/L
- PL [8]: 140.4 mg/dL
- RALB [8]: 3.4 g/dL
- TBIL [8]: 0.1 mg/dL
- TC [8]: 65 mg/dL
- TG [8]: 101 mg/dL
- TP [8]: 5.7 g/dL
- gamma-GTP [8]: 1.6 IU/L
- ALP [9]: 583.2 IU/L
- ALT [9]: 29.2 IU/L
- AST [9]: 62.8 IU/L
- BUN [9]: 17.8 mg/dL
- CRE [9]: 0.5 mg/dL
- DBIL [9]: 0.078 mg/dL
- GLC [9]: 198.8 mg/dL
- IP [9]: 5.9 mg/dL
- K [9]: 3.9 meq/L
- LDH [9]: 209.8 IU/L
- Na [9]: 140.4 meq/L
- PL [9]: 126.6 mg/dL
- RALB [9]: 3.4 g/dL
- TBIL [9]: 0.1 mg/dL
- TC [9]: 55.4 mg/dL
- TG [9]: 98.4 mg/dL
- TP [9]: 5.7 g/dL
- gamma-GTP [9]: 1 IU/L

From ChEMBL document CHEMBL3885861, “Open TG-GATES”
